Experimental findings from a melting point compilation (Tetko et al.; mined from patent text by program, amines drawn as free bases though some values may be those of a salt) are described below.

With `Clc1c(NC2=NCCO2)ccc2[nH]ncc12`, the melting point fell in the range of 223 to 225 °C. The compound `N#CC(c1ccc(Cl)c(Cl)c1)c1c(Cl)cc(N)cc1Cl` (stereo not drawn) gave a melting point of 191 to 194 °C. Next, `O=C1NC(=O)C2(CCS(=O)(=O)c3ccccc32)N1` (stereo not drawn): 280 to 281 °C. Regarding `CS(=O)(=O)Nc1ccc(CC(NC(=O)C(c2ccccc2)c2ccccc2)c2ccccc2)cc1` (stereo not drawn), the melting point lay in the range of 200 to 202 °C.

`CC1COCc2nc3cnc4cc(C=CS(C)(=O)=O)ccc4c3n21` (stereo not drawn): the melting point is 249 to 250 °C.

In turn, `CCCn1cc2c(C3C(=O)Nc4ccc(Br)cc43)nc(NC3CCNC3)nc2n1` (stereo not drawn) displayed a melting point of 315 to 320 °C. The compound `CCN1C(C)CN(CC(=O)NC2(c3cc4ccccc4o3)C(=O)Nc3cc(Cl)cc(Cl)c32)CC1C` (single isomer, unassigned; (+)) displayed a melting point of 157 to 160 °C. Under `CCOP(C)(=O)CC(Cc1ccccc1)NS(=O)(=O)c1ccc(C)cc1` (stereo not drawn) stands 121 to 122 °C; under `CCC(C(=O)C(C)C(O)C(C)CCc1c(NC(C)=O)cc(C)c(O)c1C(=O)O)C1OC(CC)(C2CCC(O)(CC)C(C)O2)CC1C` (stereo not drawn), 189 to 190 °C. Turning to `COC(=O)Cc1cn(C(c2ccccc2)(c2ccccc2)c2ccccc2)cn1`, the melting point was in the range of 122 to 125 °C. The compound `O=C(NC(=O)c1ccccc1Cl)Nc1ccc(-n2cccc2)c(Cl)c1` returned a melting point of 169 to 170 °C. `CCCCCCCCc1c(CCC)nc2ncnn2c1N`: the melting point was 165 °C. `COC(=O)c1ccc(CCc2nc(NC(C)=O)sc2Cc2ccc(S(C)(=O)=O)cc2)cc1` displayed a melting point of 209 to 210 °C.

The compound `Cc1cccc(-c2[nH]c(C(C)C)nc2-c2cccc(-c3ccccn3)c2)n1` displayed a melting point of 97 to 100 °C. In the case of `COc1ccc(CCNC(=O)CN)cc1OC1CCCC1`, the melting point fell in the range of 57 to 60 °C.

Regarding `O=C(O)C(Cc1cnc2cc(OCc3ccc(Cl)cc3)ccc2c1)Sc1ccccc1` (stereo not drawn), the melting point was 157 to 158 °C.

The compound `BrCc1nc2cc(OCc3ccccc3)ccc2s1` returned a melting point of 87 to 89 °C. Under `O=C(NCc1ccccn1)c1ccc(N2CCN(C(=O)c3ccccc3C(F)(F)F)CC2)nn1` stands 179 to 181 °C. With `CC(=O)N[C@@H](CC(=O)c1ccc2oc3ccccc3c2c1)C(=O)O`, the melting point was 166 to 170 °C. As for `COC(=O)C(NC(=O)c1ccc(Cl)cc1)C(=O)OC`, the melting point is 146 to 148 °C.

`Clc1cc2nc(NC3=NCCN3)[nH]c2c(Cl)c1Cl`: the melting point fell in the range of 324 to 326 °C. For the compound `CN(C)c1ccc2sccc2c1`, the melting point was 52 to 54 °C. Take `COc1cc(C)c(C=CC(C)=CC=CC(=O)O)c(C)c1C`: the melting point lay in the range of 189 to 191 °C. In turn, `COc1c(C=NO)ccc(Cl)c1Cl` returned a melting point of 82 to 83 °C. In turn, `O=C(O)c1ccc(C2=NOC(c3cc(Cl)cc(Cl)c3)(C(F)(F)F)C2)cc1` (stereo not drawn) returned a melting point of 237 to 240 °C.

`CCCCCCCCCCCCCCCCCCCCCCSC[C@H](NC(=O)CCCCCCCCCCCCCCC)C(=O)O` gave a melting point of 90 to 92 °C. Compound `Nc1ccc(OCc2ccccc2)c(CCCc2ccc(NC(=O)Cc3cccnc3)cc2)c1` had a melting point of 110 to 112 °C. `CN(C)C=NS(=O)(=O)c1cc(CCNC(=O)C(F)(F)F)ccc1I`: the melting point is 155 to 156 °C. On to `COc1ccc(Cc2ccc(NC3=NCCN3)cc2)s1`, for which the melting point lay in the range of 122 to 123 °C.

Turning to `CCN(CC)S(=O)(=O)c1cc2oc(-c3ccccc3)nc2c2ccccc12`, the melting point was 157 °C.

The compound `O=C(O)CCCCc1cc2cc(Cl)ccc2n1S(=O)(=O)c1ccccc1` returned a melting point of 144 to 148 °C. Under `CC1(C)COC1(Cn1cncn1)c1ccc(F)cc1` (stereo not drawn) stands 110 °C; under `COCOc1cc(OC)ccc1C(=O)O`, 96 to 97 °C; under `Cc1cc(NCc2ccc(-c3ccccc3C#N)cc2)n2nccc2n1`, 221 to 223 °C. `CC(CCC(N)=O)C1CC=C2C3=C(CCC21C)C1(C)CCC(O)C(C)(C)C1CC3` (stereo not drawn) gave a melting point of 233 to 235 °C. Consider `CC(C)c1c(C=O)c(-c2ccccc2)c2c3ccccc3ccn12`, for which the melting point lay within 134 to 136 °C. `CCOc1ccc2c(c1)n(C13CC4CC(CC(C4)C1)C3)c(=O)n2S(=O)(=O)c1ccc([N+](=O)[O-])cc1OC` returned a melting point of 231 °C. The compound `O=C(c1cc(-n2cnnn2)ccc1O)N1CCC(CCO)(c2ccccc2)C1` (stereo not drawn) had a melting point of 86 to 96 °C. In the case of `Cc1c(Cl)cccc1N=Cc1ccccc1O`, the melting point is 95 to 97 °C.

On to `NS(=O)(=O)c1cccc(-c2cccc(-c3nc(-c4ccc(Cl)s4)cc(C(F)(F)F)n3)c2)c1`, for which the melting point worked out at 226 °C.

`CSc1c(S(N)(=O)=O)ccn1C` gave a melting point of 135 to 137 °C. `CCOc1cc(N)c(Cl)cc1C(=O)NCC1CN(Cc2ccccc2)CCCO1` (stereo not drawn) returned a melting point of 180 to 183 °C. As to `C=CCCC1C=CCC2=C1C(=O)C1=C(CCCC1)C2=O` (stereo not drawn), the melting point fell in the range of 47 to 48 °C. Consider `CC(=O)N[C@H]1CC[C@H](CCN2CCC(c3ccc(F)c4occc34)CC2)CC1`, for which the melting point came out at 204 °C.

Consider `COC1(C)c2ccc(C#Cc3cc(Cl)ccc3OCC(=O)O)cc2S(=O)(=O)C1(C)C` (stereo not drawn), for which the melting point was 80 to 95 °C. Regarding `COCCc1nc2c(N)nc3ccccc3c2n1CCCCN1CCCS1(=O)=O`, the melting point lay in the range of 156 to 158 °C. Consider `CC(C)(C(=O)Nc1cccc(Cl)c1)N1COC(CBr)=C(c2ccccc2)C1=O`, for which the melting point lay within 89.8 to 90.8 °C. `CCOC(=O)[C@H](CSCc1ccccc1)NC(=O)C(C)(C)NC(=O)[C@@H](SC(C)=O)C(C)C` showed a melting point of 69 to 71 °C. `NNC1=NCCc2ccccc21` registered a melting point of 55 to 57 °C. The compound `ON=CCc1ccc(F)cc1` gave a melting point of 113 to 115 °C. In turn, `CC(C)C(C)(NC(c1ccccc1)c1ccccc1)P(O)O` (stereo not drawn) came in with a melting point of 177 °C.

Compound `COc1cncnc1N1CCN(C(=O)OC(C)(C)C)CC1C` (stereo not drawn) showed a melting point of 70 to 72 °C. For the compound `CC(C)NCC(O)COc1ccccc1C1=NN(C)C(=O)CC1` (stereo not drawn), the melting point fell in the range of 82 to 84 °C. `C=CCc1cc2c(c(CC=C)c1O)CCC(=O)N2CC=C(C)C` had a melting point of 133 to 135 °C. `O=C(OCC(O)CO)c1cc(F)ccc1Nc1ccnc2cc(C(F)(F)F)ccc12` (stereo not drawn) yielded a melting point of 167 to 168 °C.

`COc1ccc2[nH]c3c(c2c1)CCN(C(C)=O)C3C` (stereo not drawn) returned a melting point of 198 to 200 °C. Next, `Cc1ccc(S(=O)(=O)N2C[C@H]3C[C@@H]2CN3Cc2ccccc2)cc1`: 124 °C; `CSc1ccc(C)cc1S(=O)(=O)NC(C)(C)C`: 119 to 121 °C; `CS(=O)c1c(C(=N)NO)nn(-c2c(Cl)cc(C(F)(F)F)cc2Cl)c1N` (stereo not drawn): 225 to 226 °C. For the compound `CN1c2ccc(Cl)cc2NC(=S)c2cscc21`, the melting point fell in the range of 238 to 240 °C. Under `Cc1noc(NC(=O)c2c(O)ccc3cc(-c4cccc(O)c4)ccc23)c1C` stands 108 °C; under `CCCCCCCC(c1cc(C)cc(N=Nc2ccc(C)cc2[N+](=O)[O-])c1O)c1cc(C)cc(N=Nc2ccc(C)cc2[N+](=O)[O-])c1O` (stereo not drawn), 145 °C; under `CCOC(=S)c1cc(Cl)c(C)c(-c2cc(C)no2)c1C`, 79 to 82 °C.
